The NIST ThermoML archive (doi:10.1021/je030107c)
Several values for one entry are separate records, joined by “and”; a condition that tells them apart may be missing. Equal values may be shown once.

Tests used:
[1] = 101.3 kPa, Liquid; for viscosity: Capillary tube (Ostwald / Ubbelohde) method; for speed of sound: Linear variable-path acoustic interferometer; for mass density: Pycnometric method
[2] = refractive index (Na D-line) (dimensionless); details: 101.33 kPa, Liquid, Standard Abbe refractometry
[3] = xn = mol fraction of the nth substance listed; details: 101.3 kPa, Liquid; for viscosity: Capillary tube (Ostwald / Ubbelohde) method; for speed of sound: Linear variable-path acoustic interferometer; for mass density: Pycnometric method
[4] = refractive index (Na D-line) (dimensionless); xn = mol fraction of the nth substance listed; details: 101.3 kPa, Liquid, Standard Abbe refractometry

OCCO [1,2-ethanediol]
Details	mass density, 298.15 K [kg/m3]	mass density, 303.15 K [kg/m3]	mass density, 308.15 K [kg/m3]	refractive index, 298.15 K	refractive index, 303.15 K	refractive index, 308.15 K	speed of sound, 298.15 K [m/s]	viscosity, 298.15 K [mPa·s]	viscosity, 303.15 K [mPa·s]	viscosity, 308.15 K [mPa·s]
[1]	1111.3	1107.3	1103.5	–	–	–	1659	12.62	9.618	7.539
[2]	–	–	–	1.4307	1.4269	1.4246	–	–	–	–

OCCO [1,2-ethanediol] + C1COCCO1
x2 = 0
Details	mass density, 298.15 K [kg/m3]	mass density, 303.15 K [kg/m3]	mass density, 308.15 K [kg/m3]	refractive index, 298.15 K	refractive index, 303.15 K	refractive index, 308.15 K	speed of sound, 298.15 K [m/s]	viscosity, 298.15 K [mPa·s]	viscosity, 303.15 K [mPa·s]	viscosity, 308.15 K [mPa·s]
[3]	1111.3	1107.3	1103.5	–	–	–	1659	12.62	9.618	7.539
[4]	–	–	–	1.4307	1.4269	1.4246	–	–	–	–

C1COCCO1 [1,4-dioxane]
Details	mass density, 298.15 K [kg/m3]	mass density, 303.15 K [kg/m3]	mass density, 308.15 K [kg/m3]	refractive index, 298.15 K	refractive index, 303.15 K	refractive index, 308.15 K	speed of sound, 298.15 K	viscosity, 298.15 K [mPa·s]	viscosity, 303.15 K [mPa·s]	viscosity, 308.15 K [mPa·s]
[1]	1027.6	1021.9	1016.2	–	–	–	1347 m/s and 1343 m/s	1.166	1.069	0.984
[2]	–	–	–	1.4201	1.417	1.4143	–	–	–	–

C1COCCO1 [1,4-dioxane] + CCCCN(CCCC)CCCC
x1 = 1
Details	mass density, 298.15 K [kg/m3]	mass density, 303.15 K [kg/m3]	mass density, 308.15 K [kg/m3]	refractive index, 298.15 K	refractive index, 303.15 K	refractive index, 308.15 K	speed of sound, 298.15 K [m/s]	viscosity, 298.15 K [mPa·s]	viscosity, 303.15 K [mPa·s]	viscosity, 308.15 K [mPa·s]
[3]	1027.6	1021.9	1016.2	–	–	–	1343	1.166	1.069	0.984
[4]	–	–	–	1.4201	1.417	1.4143	–	–	–	–

C1COCCO1 [1,4-dioxane] + CCN(CC)CC
x1 = 1
Details	mass density, 298.15 K [kg/m3]	mass density, 303.15 K [kg/m3]	mass density, 308.15 K [kg/m3]	refractive index, 298.15 K	refractive index, 303.15 K	refractive index, 308.15 K	speed of sound, 298.15 K [m/s]	viscosity, 298.15 K [mPa·s]	viscosity, 303.15 K [mPa·s]	viscosity, 308.15 K [mPa·s]
[3]	1027.6	1021.9	1016.2	–	–	–	1343	1.166	1.069	0.984
[4]	–	–	–	1.4201	1.417	1.4143	–	–	–	–

CCCCCC [hexane]
Details	mass density, 298.15 K [kg/m3]	mass density, 303.15 K [kg/m3]	mass density, 308.15 K [kg/m3]	refractive index, 298.15 K	refractive index, 303.15 K	refractive index, 308.15 K	speed of sound, 298.15 K [m/s]	viscosity, 298.15 K [mPa·s]	viscosity, 303.15 K [mPa·s]	viscosity, 308.15 K [mPa·s]
[1]	654.8	649.7	644.8	–	–	–	1083	0.315	0.299	0.286
[2]	–	–	–	1.3728	1.3698	1.367	–	–	–	–

CCCCCC [hexane] + C1COCCO1
x2 = 0
Details	mass density, 298.15 K [kg/m3]	mass density, 303.15 K [kg/m3]	mass density, 308.15 K [kg/m3]	refractive index, 298.15 K	refractive index, 303.15 K	refractive index, 308.15 K	speed of sound, 298.15 K [m/s]	viscosity, 298.15 K [mPa·s]	viscosity, 303.15 K [mPa·s]	viscosity, 308.15 K [mPa·s]
[3]	654.8	649.7	644.8	–	–	–	1083	0.315	0.299	0.286
[4]	–	–	–	1.3728	1.3698	1.367	–	–	–	–

CCCCN(CCCC)CCCC [tributylamine]
Details	mass density, 298.15 K [kg/m3]	mass density, 303.15 K [kg/m3]	mass density, 308.15 K [kg/m3]	refractive index, 298.15 K	refractive index, 303.15 K	refractive index, 308.15 K	speed of sound, 298.15 K [m/s]	viscosity, 298.15 K [mPa·s]	viscosity, 303.15 K [mPa·s]	viscosity, 308.15 K [mPa·s]
[1]	774.4	770.1	766.2	–	–	–	1261	1.36	1.221	1.125
[2]	–	–	–	1.4274	1.4251	1.4226	–	–	–	–

CCN(CC)CC [triethylamine]
Details	mass density, 298.15 K [kg/m3]	mass density, 303.15 K [kg/m3]	mass density, 308.15 K [kg/m3]	refractive index, 298.15 K	refractive index, 303.15 K	refractive index, 308.15 K	speed of sound, 298.15 K [m/s]	viscosity, 298.15 K [mPa·s]	viscosity, 303.15 K [mPa·s]	viscosity, 308.15 K [mPa·s]
[1]	723.1	718.5	713.6	–	–	–	1127	0.363	0.347	0.33
[2]	–	–	–	1.3983	1.3955	1.3926	–	–	–	–
